According to ChEMBL document CHEMBL5579838, “Design, synthesis and antitumor activity of a novel FGFR2-selective degrader to overcome resistance of the FGFR2V564F gatekeeper mutation based on a pan-FGFR inhibitor” (Eur J Med Chem, 2024):

These compounds were tested on KATO III stomach cancer cell line (assay: cells). Details: Homo sapiens, 72 h.
Description: Antiproliferative activity against FGFR2 amplified human KATO III cells measured after 3 days by MTT assay

| IC50 [nM] | Compound |
| --- | --- |
| 39.2 | C[C@@H](Oc1ccc2[nH]nc(/C=C/c3cnn(CCNC(=O)/C=C/c4cccc(C(F)(F)F)c4)c3)c2c1)c1c(Cl)cncc1Cl |
| 20 | C[C@@H](Oc1ccc2[nH]nc(/C=C/c3cnn(CCNC(=O)CCCCNc4ccc5c(c4)C(=O)N(C4CCC(=O)NC4=O)C5=O)c3)c2c1)c1c(Cl)cncc1Cl (stereo not given in full) |
| > 50 | Cc1ncsc1-c1ccc(CNC(=O)[C@@H]2C[C@@H](O)CN2C(=O)[C@@H](NC(=O)CCC(=O)NCCn2cc(/C=C/c3n[nH]c4ccc(O[C@H](C)c5c(Cl)cncc5Cl)cc34)cn2)C(C)(C)C)cc1 |
| 41.8 | C[C@@H](Oc1ccc2[nH]nc(/C=C/c3cnn(CCNC(=O)/C=C/c4ccc(C(F)(F)F)cc4)c3)c2c1)c1c(Cl)cncc1Cl |
| 6.83 | C[C@@H](Oc1ccc2[nH]nc(/C=C/c3cnn(CCNc4cccc5c4C(=O)N(C4CCC(=O)NC4=O)C5=O)c3)c2c1)c1c(Cl)cncc1Cl (stereo not given in full) |
| 47 | C[C@@H](Oc1ccc2[nH]nc(/C=C/c3cnn(CCNC(=O)CNc4ccc5c(c4)C(=O)N(C4CCC(=O)NC4=O)C5=O)c3)c2c1)c1c(Cl)cncc1Cl (stereo not given in full) |
| 4.16 | C[C@@H](Oc1ccc2[nH]nc(/C=C/c3cnn(CCNC(=O)CCNc4cccc5c4C(=O)N(C4CCC(=O)NC4=O)C5=O)c3)c2c1)c1c(Cl)cncc1Cl (stereo not given in full) |
| 10.1 | COc1ccc(C(=O)/C=C/C(=O)NCCn2cc(/C=C/c3n[nH]c4ccc(O[C@H](C)c5c(Cl)cncc5Cl)cc34)cn2)cc1 |
| 12.1 | C[C@@H](Oc1ccc2[nH]nc(/C=C/c3cnn(CCNC(=O)/C=C/C(=O)c4ccc(F)cc4)c3)c2c1)c1c(Cl)cncc1Cl |
| > 50 | Cc1ncsc1-c1ccc(CNC(=O)[C@@H]2C[C@@H](O)CN2C(=O)[C@@H](NC(=O)CCCC(=O)NCCn2cc(/C=C/c3n[nH]c4ccc(O[C@H](C)c5c(Cl)cncc5Cl)cc34)cn2)C(C)(C)C)cc1 |
| 17.5 | C[C@@H](Oc1ccc2[nH]nc(/C=C/c3cnn(CCNC(=O)CCCCNc4cccc5c4C(=O)N(C4CCC(=O)NC4=O)C5=O)c3)c2c1)c1c(Cl)cncc1Cl (stereo not given in full) |
| 8.08 | C[C@@H](Oc1ccc2[nH]nc(/C=C/c3cnn(CCNC(=O)CCCNc4cccc5c4C(=O)N(C4CCC(=O)NC4=O)C5=O)c3)c2c1)c1c(Cl)cncc1Cl (stereo not given in full) |
| > 50 | C[C@@H](Oc1ccc2[nH]nc(/C=C/c3cnn(CCNC(=O)/C=C/C(=O)c4ccc(Cl)cc4)c3)c2c1)c1c(Cl)cncc1Cl |
| 4.93 | C[C@@H](Oc1ccc2[nH]nc(/C=C/c3cnn(CCNC(=O)CCCCCNc4cccc5c4C(=O)N(C4CCC(=O)NC4=O)C5=O)c3)c2c1)c1c(Cl)cncc1Cl (stereo not given in full) |
| > 50 | Cc1ncsc1-c1ccc(CNC(=O)[C@@H]2C[C@@H](O)CN2C(=O)[C@@H](NC(=O)CCC(=O)NCn2cc(/C=C/c3n[nH]c4ccc(O[C@H](C)c5c(Cl)cncc5Cl)cc34)cn2)C(C)(C)C)cc1 |
| > 50 | C[C@@H](Oc1ccc2[nH]nc(/C=C/c3cnn(CCNC(=O)/C=C/c4cc(C(F)(F)F)cc(C(F)(F)F)c4)c3)c2c1)c1c(Cl)cncc1Cl |
| 7.29 | C[C@@H](Oc1ccc2[nH]nc(/C=C/c3cnn(CCNc4ccc5c(c4)C(=O)N(C4CCC(=O)NC4=O)C5=O)c3)c2c1)c1c(Cl)cncc1Cl (stereo not given in full) |
| 46.6 | C[C@@H](Oc1ccc2[nH]nc(/C=C/c3cnn(CCNC(=O)/C=C/C(=O)c4ccc(Br)cc4)c3)c2c1)c1c(Cl)cncc1Cl |
| 10.4 | C[C@@H](Oc1ccc2[nH]nc(/C=C/c3cnn(CCNC(=O)CCCNc4ccc5c(c4)C(=O)N(C4CCC(=O)NC4=O)C5=O)c3)c2c1)c1c(Cl)cncc1Cl (stereo not given in full) |
| > 50 | Cc1ncsc1-c1ccc(CNC(=O)[C@@H]2C[C@@H](O)CN2C(=O)[C@@H](NC(=O)CCCCCC(=O)NCCn2cc(/C=C/c3n[nH]c4ccc(O[C@H](C)c5c(Cl)cncc5Cl)cc34)cn2)C(C)(C)C)cc1 |
| 22.4 | C[C@@H](Oc1ccc2[nH]nc(/C=C/c3cnn(CCNC(=O)CNc4cccc5c4C(=O)N(C4CCC(=O)NC4=O)C5=O)c3)c2c1)c1c(Cl)cncc1Cl (stereo not given in full) |
| 14.8 | C[C@@H](Oc1ccc2[nH]nc(/C=C/c3cnn(CCNC(=O)CCNc4ccc5c(c4)C(=O)N(C4CCC(=O)NC4=O)C5=O)c3)c2c1)c1c(Cl)cncc1Cl (stereo not given in full) |
| > 50 | Cc1ncsc1-c1ccc(CNC(=O)[C@@H]2C[C@@H](O)CN2C(=O)[C@@H](NC(=O)CCCCC(=O)NCCn2cc(/C=C/c3n[nH]c4ccc(O[C@H](C)c5c(Cl)cncc5Cl)cc34)cn2)C(C)(C)C)cc1 |
| 15.4 | C[C@@H](Oc1ccc2[nH]nc(/C=C/c3cnn(CCNC(=O)/C=C/C(=O)c4ccccc4)c3)c2c1)c1c(Cl)cncc1Cl |

These compounds were tested against Fibroblast growth factor receptor 2 (Homo sapiens, UniProt P21802) (assay: not given). Details: not given.
Fibroblast growth factor receptor 2, sequence (P21802 whole entry): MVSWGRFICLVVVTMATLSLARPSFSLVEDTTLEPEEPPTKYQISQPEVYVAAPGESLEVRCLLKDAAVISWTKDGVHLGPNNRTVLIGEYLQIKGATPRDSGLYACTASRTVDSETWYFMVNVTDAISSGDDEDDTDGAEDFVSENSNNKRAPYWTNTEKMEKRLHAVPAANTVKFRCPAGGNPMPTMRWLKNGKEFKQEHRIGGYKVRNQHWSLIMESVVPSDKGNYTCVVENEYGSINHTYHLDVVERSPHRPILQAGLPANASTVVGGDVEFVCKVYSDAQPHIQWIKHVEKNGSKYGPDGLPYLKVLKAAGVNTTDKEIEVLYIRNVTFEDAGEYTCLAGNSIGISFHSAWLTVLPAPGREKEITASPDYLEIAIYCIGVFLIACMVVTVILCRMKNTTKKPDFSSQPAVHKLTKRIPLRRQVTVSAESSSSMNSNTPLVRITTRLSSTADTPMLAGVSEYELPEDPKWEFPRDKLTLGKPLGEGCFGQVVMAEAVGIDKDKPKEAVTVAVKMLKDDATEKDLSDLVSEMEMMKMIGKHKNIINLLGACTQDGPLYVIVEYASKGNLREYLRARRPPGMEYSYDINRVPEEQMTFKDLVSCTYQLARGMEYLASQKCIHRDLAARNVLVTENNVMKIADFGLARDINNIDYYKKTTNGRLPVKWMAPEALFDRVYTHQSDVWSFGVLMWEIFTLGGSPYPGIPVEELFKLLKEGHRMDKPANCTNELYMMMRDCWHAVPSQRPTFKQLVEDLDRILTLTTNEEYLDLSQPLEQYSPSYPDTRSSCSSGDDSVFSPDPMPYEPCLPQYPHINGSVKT

| IC50 [nM] | Compound |
| --- | --- |
| 2.09 | C[C@@H](Oc1ccc2[nH]nc(/C=C/c3cnn(CCN)c3)c2c1)c1c(Cl)cncc1Cl |
